From patent US9670227B2, “Thienopyrimidine derivatives, a process for their preparation and pharmaceutical compositions containing them” (LES LABORATOIRES SERVIER, priority 2013, dated 2017) come the findings set out here.

Like-named read-outs stand apart in the source and are kept apart here.

Test [1] concerns AMO-1 multiple myeloma cells. Nature of the test: Quantification of the cleaved form of PARP in vivo (MSD ELISA, tumour lysates). Set-up: species or system mice (SCID strain). Particulars: activation factor: cleaved PARP in treated mice / control mice, AMO-1 xenograft in SCID mice, intraveinous or oral routes. The method, then: The ability of the compounds of the invention to induce apoptosis, by measuring cleaved PARP levels, is evaluated in a xenograft model of AMO-1 multiple myeloma cells. 1.10^7 AMO-1 cells are grafted sub-cutaneously into immunosuppressed mice (SCID strain). 12 to 14 days after the graft, the animals are treated by intraveinous or oral routes with the various compounds. After treatment, the tumour masses are recovered and lysed, and the cleaved form of PARP is quantified in the tumour lysates.
The quantification is carried out using the “Meso Scale Discovery (MSD) ELISA platform” test, which specifically assays the cleaved form of PARP. It is expressed in the form of an activation factor corresponding to the ratio between the quantity of cleaved PARP in the treated mice divided by the quantity of cleaved PARP in the control mice.

The target in another test is Mcl-1 protein (UniProtKB primary accession number: Q07820) (Homo sapiens, UniProt Q07820). Kind of test: Inhibition of Mcl-1 by fluorescence polarisation, Method 1. In kind it is binding. Particulars: read-out: IC50 (M) Mcl-1 FP. The method, boiled down:
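FP readout of relative binding potency. Mcl-1 5 nM final, fluorescein-labelled ligand 1 nM final; buffer 10 mM HEPES, 150 mM NaCl, 0.05% Tween 20, pH 7.4; 11-pt dilution series, 5% DMSO final.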
A general note: Polarisation of emitted light reports the rotation of a fluorescent probe.

Test [2] concerns H929 multiple myeloma tumour line. Kind of test: In vitro cytotoxicity, Microculture Tetrazolium Assay. In kind it is cell-based. Particulars: H929 cells, 48 hours exposure, MTT, read-out: IC50 (μM) MTT H929. The method, then: The cytotoxicity studies were carried out on the H929 multiple myeloma tumour line.
The cells are distributed onto microplates and exposed to the test compounds for 48 hours.

[3] abbreviates: fluorescence polarisation, Method 1, or Method 2.

What is called IC50 is the concentration needed to halve the response being measured.

Mcl-1 protein, sequence (Q07820 whole entry): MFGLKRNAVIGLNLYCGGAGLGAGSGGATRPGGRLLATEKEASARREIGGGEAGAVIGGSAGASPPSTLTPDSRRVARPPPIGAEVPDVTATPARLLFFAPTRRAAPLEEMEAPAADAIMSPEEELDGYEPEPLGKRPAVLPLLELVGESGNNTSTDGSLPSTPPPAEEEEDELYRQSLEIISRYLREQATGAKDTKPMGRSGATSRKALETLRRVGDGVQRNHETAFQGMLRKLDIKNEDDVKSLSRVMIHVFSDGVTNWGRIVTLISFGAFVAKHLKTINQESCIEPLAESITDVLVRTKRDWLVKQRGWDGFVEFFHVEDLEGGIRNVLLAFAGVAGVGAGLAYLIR

As for `COCCOc1ccccc1CC(Oc1ncnc2sc(-c3ccco3)c(-c3ccc(OCCN4CCN(C)CC4)c(Cl)c3C)c12)C(=O)O` [Example 290, (2R)-2-{[(5Sa)-5-{3-chloro-2-methyl-4-[2-(4-methylpiperazin-1-yl)ethoxy]phenyl}-6-(furan-2-yl)thieno[2,3-d]pyrimidin-4-yl]oxy}-3-[2-(2-methoxyethoxy)phenyl]propanoic acid], the PARP fold in test [1] stood at 121 fold. Also, the IC50 on Mcl-1 protein (fluorescence polarisation test, Method 2 values are underlined in the patent (underlining not visible here)) is 5.8e-09 M; in test [2] (Homo sapiens, NCI-H929, 48 h), 0.097 µM.

In test [1], `CC#Cc1sc2ncnc(O[C@H](Cc3ccccc3OCc3ccnc(-c4ccncc4C)n3)C(=O)O)c2c1-c1ccc(OCCN2CCN(C)CC2)c(Cl)c1C` [Example 483, (2R)-2-{[(5Sa)-5-{3-chloro-2-methyl-4-[2-(4-methylpiperazin-1-yl)ethoxy]phenyl}-6-(prop-1-yn-1-yl)thieno[2,3-d]pyrimidin-4-yl]oxy}-3-(2-{[2-(3-methylpyridin-4-yl)pyrimidin-4-yl]methoxy}phenyl)propanoic acid] showed a PARP fold of 411 fold. In addition, the 50% inhibitory concentration (IC50) on Mcl-1 protein (setting [3]) was 5.2e-09 M; in test [2], 0.003 µM.

As for `CC#Cc1sc2ncnc(OC(Cc3ccccc3OCc3ccnc(N4CCOCC4)n3)C(=O)O)c2c1-c1ccc(OCCN2CCN(C)CC2)c(Cl)c1C` [Example 485, (2R)-2-{[(5Sa)-5-{3-chloro-2-methyl-4-[2-(4-methylpiperazin-1-yl)ethoxy]phenyl}-6-(prop-1-yn-1-yl)thieno[2,3-d]pyrimidin-4-yl]oxy}-3-(2-{[2-(morpholin-4-yl)pyrimidin-4-yl]methoxy}phenyl)propanoic acid], in test [1], the PARP fold came out at 110.8 fold. The IC50 on Mcl-1 protein (setting [3]) was determined as 4.3e-09 M; in test [2] (Homo sapiens, NCI-H929, 48 h) it was 0.012 µM.

In turn, `CC#Cc1sc2ncnc(OC(Cc3ccccc3OCc3ccnc(OCC(F)(F)F)n3)C(=O)O)c2c1-c1ccc(OCCN2CCN(C)CC2)c(Cl)c1C` [Example 487, (2R)-2-{[(5Sa)-5-{3-chloro-2-methyl-4-[2-(4-methylpiperazin-1-yl)ethoxy]phenyl}-6-(prop-1-yn-1-yl)thieno[2,3-d]pyrimidin-4-yl]oxy}-3-(2-{[2-(2,2,2-trifluoroethoxy)pyrimidin-4-yl]methoxy}phenyl)propanoic acid] displayed a PARP fold in test [1] of 141.4 fold. Besides, the half-inhibitory concentration (IC50) was found to be 6.5e-09 M on Mcl-1 protein (setting [3]) and 0.004 µM in test [2] (Homo sapiens, NCI-H929, 48 h).

Consider `CC#Cc1sc2ncnc(OC(Cc3ccccc3OCc3ccnn3C(C)(C)C)C(=O)O)c2c1-c1ccc(OCCN2CCN(C)CC2)c(Cl)c1C` [Example 488, (2R)-3-{2-[(1-tert-butyl-1H-pyrazol-5-yl)methoxy]phenyl}-2-{[(5Sa)-5-{3-chloro-2-methyl-4-[2-(4-methylpiperazin-1-yl)ethoxy]phenyl}-6-(prop-1-yn-1-yl)thieno[2,3-d]pyrimidin-4-yl]oxy}propanoic acid], for which the PARP fold in test [1] turned out to be 175.5 fold. Besides, the IC50 was found to be 5.4e-09 M on Mcl-1 protein (setting [3]) and 0.014 µM in test [2] (Homo sapiens, NCI-H929, 48 h).

Consider `CC#Cc1sc2ncnc(OC(Cc3ccccc3OCc3ccnn3CC(F)(F)F)C(=O)O)c2c1-c1ccc(OCCN2CCN(C)CC2)c(Cl)c1C` [Example 489, (2R)-2-{[(5Sa)-5-{3-chloro-2-methyl-4-[2-(4-methylpiperazin-1-yl)ethoxy]phenyl}-6-(prop-1-yn-1-yl)thieno[2,3-d]pyrimidin-4-yl]oxy}-3-(2-{[1-(2,2,2-trifluoroethyl)-1H-pyrazol-5-yl]methoxy}phenyl)propanoic acid], for which the PARP fold in test [1] was 233.2 fold. Moreover, the IC50 was 1.2e-09 M at Mcl-1 protein (setting [3]) and 0.026 µM in test [2] (Homo sapiens, NCI-H929, 48 h).

On to `Cc1c(-c2c(-c3ccc(F)cc3)sc3ncnc(OC(Cc4ccccc4OCc4ccnc(-c5ccccc5O)n4)C(=O)O)c23)ccc(OCCN2CCN(C)CC2)c1Cl` [Example 722, (2R)-2-{[(5Sa)-5-{3-chloro-2-methyl-4-[2-(4-methylpiperazin-1-yl)ethoxy]phenyl}-6-(4-fluorophenyl)thieno[2,3-d]pyrimidin-4-yl]oxy}-3-(2-{[2-(2-hydroxyphenyl)pyrimidin-4-yl]methoxy}phenyl)propanoic acid], for which the PARP fold in test [1] was 296.6 fold. Further, the half-maximal inhibitory concentration (IC50) is 1.4e-09 M at Mcl-1 protein (setting [3]) and 0.023 µM in test [2] (Homo sapiens, NCI-H929, 48 h).

Turning to `Cc1c(-c2c(-c3ccc(F)cc3)sc3ncnc(OC(Cc4ccccc4OCc4ccnc(-c5ccccc5OC(C)C)n4)C(=O)O)c23)ccc(OCCN2CCN(C)CC2)c1Cl` [Example 723, (2R)-2-{[(5Sa)-5-{3-chloro-2-methyl-4-[2-(4-methylpiperazin-1-yl)ethoxy]phenyl}-6-(4-fluorophenyl)thieno[2,3-d]pyrimidin-4-yl]oxy}-3-[2-({2-[2-(propan-2-yloxy)phenyl]pyrimidin-4-yl}methoxy)phenyl]propanoic acid], the PARP fold in test [1] was 191.2 fold. Besides, the concentration for half-maximal inhibition (IC50) is 1.18e-09 M on Mcl-1 protein (setting [3]) and 0.004 µM in test [2] (Homo sapiens, NCI-H929, 48 h).

Turning to `COCCOc1ccccc1-c1nccc(COc2ccccc2CC(Oc2ncnc3sc(-c4ccc(F)cc4)c(-c4ccc(OCCN5CCN(C)CC5)c(Cl)c4C)c23)C(=O)O)n1` [Example 724, (2R)-2-{[(5Sa)-5-{3-chloro-2-methyl-4-[2-(4-methylpiperazin-1-yl)ethoxy]phenyl}-6-(4-fluorophenyl)thieno[2,3-d]pyrimidin-4-yl]oxy}-3-[2-({2-[2-(2-methoxyethoxy)phenyl]pyrimidin-4-yl}methoxy)phenyl]propanoic acid], in test [1], the PARP fold was 188.9 fold. Further, the IC50 on Mcl-1 protein (setting [3]) is 9.48e-10 M; in test [2] (Homo sapiens, NCI-H929, 48 h) it was 0.002 µM.

`CCc1ccccc1-c1nccc(COc2ccccc2C[C@@H](Oc2ncnc3sc(-c4ccc(F)cc4)c(-c4ccc(OCCN5CCN(C)CC5)c(Cl)c4C)c23)C(=O)O)n1` [Example 726, (2R)-2-{[(5Sa)-5-{3-chloro-2-methyl-4-[2-(4-methylpiperazin-1-yl)ethoxy]phenyl}-6-(4-fluorophenyl)thieno[2,3-d]pyrimidin-4-yl]oxy}-3-(2-{[2-(2-ethylphenyl)pyrimidin-4-yl]methoxy}phenyl)propanoic acid] had a PARP fold in test [1] of 112.5 fold. In addition, the IC50 was 1.18e-09 M at Mcl-1 protein (setting [3]) and 0.011 µM in test [2].

`COc1ccc(-c2nccc(COc3ccccc3CC(Oc3ncnc4sc(-c5ccc(F)cc5)c(-c5ccc(OCCN6CCN(C)CC6)c(Cl)c5C)c34)C(=O)O)n2)c(C(F)(F)F)c1` [Example 729, (2R)-2-{[(5Sa)-5-{3-chloro-2-methyl-4-[2-(4-methylpiperazin-1-yl)ethoxy]phenyl}-6-(4-fluorophenyl)thieno[2,3-d]pyrimidin-4-yl]oxy}-3-[2-({2-[4-methoxy-2-(trifluoromethyl)phenyl]pyrimidin-4-yl}methoxy)phenyl]propanoic acid] had a PARP fold in test [1] of 221 fold. Besides, the IC50 worked out at 1.24e-09 M on Mcl-1 protein (setting [3]) and 0.009 µM in test [2] (Homo sapiens, NCI-H929, 48 h).

The compound `Cc1cc(-c2nccc(COc3ccccc3CC(Oc3ncnc4sc(-c5ccc(F)cc5)c(-c5ccc(OCCN6CCN(C)CC6)c(Cl)c5C)c34)C(=O)O)n2)c(C)cn1` [Example 731, (2R)-2-{[(5Sa)-5-{3-chloro-2-methyl-4-[2-(4-methylpiperazin-1-yl)ethoxy]phenyl}-6-(4-fluorophenyl)thieno[2,3-d]pyrimidin-4-yl]oxy}-3-(2-{[2-(2,5-dimethylpyridin-4-yl)pyrimidin-4-yl]methoxy}phenyl)propanoic acid] yielded a PARP fold in test [1] of 175.5 fold. Moreover, the half-inhibitory concentration (IC50) is 9.48e-10 M at Mcl-1 protein (setting [3]) and 0.005 µM in test [2] (Homo sapiens, NCI-H929, 48 h).

`CCc1c(-c2c(-c3ccc(F)cc3)sc3ncnc(O[C@H](Cc4ccccc4OCc4ccnc(-c5ccccc5OC)n4)C(=O)O)c23)ccc(OCCN2CCN(C)CC2)c1Cl` [Example 741, (2R)-2-{[(5Sa)-5-{3-chloro-2-ethyl-4-[2-(4-methylpiperazin-1-yl)ethoxy]phenyl}-6-(4-fluorophenyl)thieno[2,3-d]pyrimidin-4-yl]oxy}-3-(2-{[2-(2-methoxyphenyl)pyrimidin-4-yl]methoxy}phenyl)propanoic acid] registered a PARP fold in test [1] of 244 fold. The IC50 at Mcl-1 protein (setting [3]) amounted to 9.48e-10 M; in test [2], 0.002 µM.

The compound `COc1ccccc1-c1nccc(COc2ccccc2CC(Oc2ncnc3sc(-c4ccc(F)cc4)c(-c4ccc(OCCN5CCN(C)CC5)c(Cl)c4Br)c23)C(=O)O)n1` [Example 742, (2R)-2-{[(5Sa)-5-{2-bromo-3-chloro-4-[2-(4-methylpiperazin-1-yl)ethoxy]phenyl}-6-(4-fluorophenyl)thieno[2,3-d]pyrimidin-4-yl]oxy}-3-(2-{[2-(2-methoxyphenyl)pyrimidin-4-yl]methoxy}phenyl)propanoic acid] registered a PARP fold in test [1] of 267.2 fold. The concentration for half-maximal inhibition (IC50) at Mcl-1 protein (setting [3]) was found to be 9.48e-10 M; in test [2] (Homo sapiens, NCI-H929, 48 h), 0.002 µM.
